Results: patent US9943499B2, “Lipase inhibitors for the treatment of pancreatitis and organ failure” (priority 2011, dated 2018)
Entries after “also recorded” stand apart in the source; their conditions may differ. Where two headings read alike, the source gives them in different places.

Tests used:
Male Wistar rats = experiment: Intraductal infusion of glyceryl trilinoleate (GTL) pancreatitis; format: in vivo; conditions: for mortality: intraductal GTL alone, GTL+orlistat 75 mg/ml, GTL+cetilistat 25 mg/ml, followed to day 5; for gross pancreatic appearance: hemorrhages and necrosis: intraductal GTL with or without lipase inhibitor
Procedure: Experiments were performed using a model, the technique of which is established and well described in rats (1, 2, 4, 7). This involves infusion of agents into the pancreatic duct to cause acute pancreatitis (1, 2, 4, 7). We will refer to this technique as “intraductal infusion”. We compared the severity of pancreatic damage and survival of rats after intraductal infusion of Glyceryl trilinoleate with and without the lipase inhibitor orlistat. In addition, we used a different lipase inhibitor-cetilistat (3, 6), and studied its efficacy in improving survival of rats in intraductal infusion pancreatitis induced with Glyceryl trilinoleate (GTL).
Male Wistar rats (250-350 gm), were anesthetized. Intraductal infusion of 0.1 ml (n=5) or 0.2 ml (n=5) of GTL (Sigma-Aldrich corporation) alone or GTL+orlistat (Caymen chemical, Ann Arbor, Mich.) (75 mg/ml, 0.1 ml n=5 or 0.2 ml n=5) or GTL+cetilistat (Jinan Wedo Industrial Co., Ltd., Jinan City, Shandong China) (25 mg/ml, 0.2 ml, n=10) was done as described previously (1, 2, 4, 7). All animals were given pain control (buprenorphine 200 mcg/kg BID), Cefazolin (100 mg/kg), and 10 cc saline subcutaneously BID as per the IACUC protocol. These were followed for survival.

acinar cells = format: cell-based; conditions: for prevention of linoleic acid induced LDH leakage: 300 μM LA, 30 μM BAPTA or 1 mM EGTA, 90 minutes and 3 hours
From the text: Harvesting cells: Primary acinar cells from wild type mice (C57B6) were harvested and used as described previously. Viability, confirmed by trypan blue exclusion, was >95%. […] These were used in the individual experiments. Data presented is representative of 3 or more experiments.
Acinar culture: Acinar culture was done as described previously to study inflammatory mediator upregulation.
Calcium imaging: Acinar cells loaded with fura-2AM as described previously on 35-mm glass bottom culture dishes (MatTek corporation, Ashland, Mass.) were imaged on temperature-controlled motorized stage of an Olympus IX81 inverted microscope (Olympus America Inc, Melville, N.Y.) with a 20×0.70 NA objective and a QImaging Retiga EXi CCD camera (QImaging, Burnaby, Canada). Baseline images were taken, and cells with extremely bright or dim fluorescence were omitted. Fatty acids (linolenic, linoleic, oleic, stearic, and palmitic, 100-1200 μM final concentration) were added, and cytosolic calcium levels [Cai] were determined by alternate excitation at 340 nm and 380 nm, measuring emission at 510 nm. […] Image acquisition was with the MetaMorph 7.5 Imaging System (Molecular Devices, Downington, Pa.) using the MetaMorph 6.3 software. The 340/380 emission ratio were averaged for 7-25 acini per field, with background subtraction. Data presented is a mean from separate experiments.
Visceral fat triglyceride composition: The visceral fat triglyceride composition analysis was done at Kennedy Krieger Institute (Baltimore, Md.). Briefly, total lipids were extracted by the method of Folch. The total lipids were weighed and then separated into 4 fractions by column chromatography on silicic acid. The second fraction has the mono-, di- and triglycerides, the non-esterified fatty acids, and ceramides; 400 micrograms of the second fraction was taken and purified, and non-esterified acids, triglycerides, and diglycerides were collected by thin-layer chromatography on Silica Gel G plates. The fatty acids were derivatized and analyzed by GCMS as their pentafluorbenzylbromide esters. ATP levels, cytochrome C release, and % LDH leakage were measured as previously described. Apoptosis was measured by active caspase-3 [western blotting, activity assays (Enzcheck, Invitrogen, Carlsbad, Calif.)], TUNEL assays, and Hoechst dye nuclear incorporation (8 mg/ml Hoechst 33342 added for 15 minutes after treatment). […] Results were reported as % of cells with given nuclear changes. These were counter stained with PI (1 μM) to stain necrotic cells (FIG. 7A, B, C) and imaged with a Zeiss Meta dual fluorescence confocal microscope. PI-positive cells were counted as late apoptosis or necrosis. […] Autophagy was studied by western blotting for LC3-I and II. RNA was extracted using Trizol (Invitrogen, Carlsbad, Calif.). mRNA levels of TNF-α, CXCL1, and CXCL2 were measured as described previously using real time-PCR performed on an ABI Prism 7000 Sequence Detection System (Applied Biosystems, Foster City, Calif.) on proprietary Taqman Gene Expression assay reagents (Applied Biosystems). Mitochondrial complex assays and citrate synthase assay were done as described previously.

[1] = in combination with GTL, at necropsy

**Q.** With `CCCCCCCCCCCCCCCCOc1nc2ccc(C)cc2c(=O)o1` [cetilistat] as the compound, how does the mortality (Male Wistar rats; dead/total) read?
**A.** 2/10

**Q.** What about the “lung injury (TUNEL positive nuclei)” value (Male Wistar rats; [1]) of the same compound?
**A.** nearly completely prevented

**Q.** What about the “renal injury (TUNEL positive nuclei)” value (Male Wistar rats; [1]) of the same compound?
**A.** nearly completely prevented; also recorded: absence of staining TUNEL positive nuclei

**Q.** And the “lung injury (TUNEL positive nuclei)” value (Male Wistar rats; in combination with GTL, at necropsy, listed as Cetilistat)?
**A.** absence of TUNEL positive nuclei

**Q.** And the “gross pancreatic appearance: hemorrhages and necrosis” value (Male Wistar rats)?
**A.** prevented the hemorrhages and necrosis up to 5 days

**Q.** What does the source list for `O=C(O)CN(CCOCCOCCN(CC(=O)O)CC(=O)O)CC(=O)O` [EGTA]?
**A.** prevention of linoleic acid induced LDH leakage (acinar cells): ineffective; LDH leakage (acinar cells; 300 μM linoleic acid, EGTA 1 mM, 90 minute): 21.2±8.3%; LDH leakage (acinar cells; 300 μM linoleic acid, EGTA 1 mM, 3 hour): 54.6±6.4%

**Q.** Which results are given for `CCCCC/C=C\C/C=C\CCCCCCCC(=O)O` [linoleic acid]?
**A.** acinar mRNA levels of TNF-α, CXCL1 and CXCL2 (acinar cells; 200 μM fatty acid (sub-lethal)): increased; autophagy (LC3-II) and apoptosis (active caspase3) (acinar cells; 300 μM linoleic acid): not activated

**Q.** Which “600 μM LA induced intra-acinar calcium (Cai) increase” value (acinar cells; 1 μM thapsigargin, EGTA 1 mM) does the source give for `C/C=C(/C)C(=O)O[C@H]1C(C)=C2[C@H]([C@@H]1OC(=O)CCCCCCC)[C@@](C)(OC(C)=O)C[C@H](OC(=O)CCC)[C@@]1(O)[C@H]2OC(=O)[C@@]1(C)O` [thapsigargin] here?
**A.** prevents

**Q.** For `O=C(O)CN(CC(=O)O)c1ccccc1OCCOc1ccccc1N(CC(=O)O)CC(=O)O` [BAPTA], which “prevention of linoleic acid induced LDH leakage” value (acinar cells) is on record?
**A.** partially prevented

**Q.** Which mortality (Male Wistar rats; dead/total) does the source give for `CCCCC/C=C\C/C=C\CCCCCCCC(=O)OCC(COC(=O)CCCCCCC/C=C\C/C=C\CCCCC)OC(=O)CCCCCCC/C=C\C/C=C\CCCCC` [GTL, glyceryl trilinoleate] here?
**A.** 10/10

**Q.** What about the first day mortality (Male Wistar rats; dead/total, intraductal GTL without further treatment) of the same compound?
**A.** 10/10

**Q.** What about the “gross pancreatic appearance: hemorrhages and necrosis” value (Male Wistar rats) of the same compound?
**A.** caused severe hemorrhages, and near total necrosis of the gland within 24 hours
